Values joined by “and” are separate entries in the source; they are usually repeats but may differ in a detail not shown here. Identical values can stand only once.
Experiments:
PaPepA [1] = target: T1, PaPepA (Pseudomonas aeruginosa, UniProt Q02RY8); settings: degassed solutions, 3 mM MnCl2, 2 mM Leu-pNA, sodium bicarbonate 0 to 5 mM
Text: For assays investigating bicarbonate dependence, all buffers and stock solutions were extensively degassed prior to use.[25]

PaPepA [2] = target: T1, PaPepA; experiment: Metal activation of Leu-pNA cleavage (metal varied, Leu-pNA fixed); format: biochemical; parameters: GG stays after cleavage) (N); made in house; host or cells: E. coli BL21(DE3); settings: with 2 mM Leu-pNA
Method: A BMG Labtech POLARstar Omega plate reader was used for activity assays and kinetic studies involving amino acids conjugated to para-nitroaniline (pNA) (Sigma) or peptides as substrates. Assays were carried out at 25 °C in clear half-area 96-well plates (Greiner Bio-One). […] For kinetic assays investigating Leu-AMC as a substrate, a SpectraMax M2E was used. Reactions were carried out using black half-area 96-well plates with clear bottoms (Greiner Bio-One). Product formation was assessed by monitoring changes in fluorescence, with the excitation wavelength set at 341 nm and emission at 441 nm. The cutoff was 420 nm. PMT gain was set to medium, with six flashes per read. […] Calibration curves of pNA concentration vs absorbance and AMC vs fluorescence were constructed, and initial rate values were divided by the slope of these calibration curves to reveal the rate of product formation over time (Table S2).
For all assays excluding pH dependence curves, buffer conditions were as follows: 100 mM HEPES, 50 mM KCl, and pH 8.0. For assays carried out under pseudo-first-order conditions, one reaction component was fixed and in excess, while the other was varied. […] For assays involving variation of aa-pNA or aa-AMC, MnCl2 was added to a final concentration of 3 mM.

PaPepA [3] = target: T1, PaPepA; experiment: Isothermal titration calorimetry of metal binding; parameters: GG stays after cleavage) (N); made in house; host or cells: E. coli BL21(DE3)
Method: Purified PaPepA (100 μM) was buffer exchanged into ITC buffer (50 mM Tris, 140 mM NaCl, pH 7.4) using a Millipore Amicon Ultra-4 centrifugal unit (10 kDa MWCO). The protein was syringe-filtered through a […] and diluted to 50 μM. 3 mL solutions of filtered metal were also prepared. A 400 μM solution of MnCl2 and a 1 mM solution of MgCl2 were prepared by dilution of 1 M metal chloride stocks (Sigma) into ITC buffer.
Buffer, protein, and metal solutions were degassed. Following extensive washes with ITC buffer, the protein was loaded into the cell (volume 1.43 mL) of a VP-ITC (MicroCal) and MnCl2 or MgCl2 solution was loaded into the syringe (total volume 300 μL). Experiments were carried out using the following settings: temperature = 25 °C, duration = 4 s, spacing = 210 s, filter period = 2 s, for 35 injections (one injection of 2 μL followed by 34 injections of 8 μL). Data were analyzed using Origin(Pro), Version 2021 (OriginLab Corporation, Northampton, Massachusetts, USA), and MicroCal PEAQ-ITC analysis software (Malvern).

PaPepA [4] = target: T1, PaPepA; experiment: Solvent kinetic isotope effects; format: biochemical; parameters: GG stays after cleavage) (N); made in house; host or cells: E. coli BL21(DE3); settings: H2O vs 80% D2O, metal varied, Leu-pNA fixed, pH 8.0
Method: SKIEs were determined by plotting saturation curves in H2O or 80% D2O. […] Differences between reaction rates under initial velocity conditions were measured varying the concentration of either Leu-pNA or Mn^2+, while keeping the other component constant and in excess (at least 5× the value of KM or KACT, Scheme 2). Experiments were performed at pH 8.0 (100 mM HEPES, with 50 mM KCl). For proton inventory studies, D2O was varied from 0 to 80% in 10% increments. All proton inventory studies were carried out on the same day by using the same enzyme stock.
When calculating SKIEs, kcat and KM were obtained from the Michaelis–Menten curves in H2O. The 80% D2O Michaelis–Menten curve was fit to the following equation: [drawing 2] 2 where Fi is the fraction D2O, and EV/K and EV are the isotope effects −1 on kcat/KM and kcat, respectively.

PaPepA [5] = target: T1, PaPepA; experiment: biochemical
Text: MnCl2 was present in excess.
concentrations of Leucine as an inhibitor.

PaPepA [6] = target: T1, PaPepA; experiment: Zn2+ inhibition in the pNA assay with Mn2+; format: biochemical; parameters: GG stays after cleavage) (N); made in house; host or cells: E. coli BL21(DE3)
Method: Figure 3 PaPepA metal binding and catalysis. (A) PaPepA activity with different divalent metals assessed through kcat/KACT. Leu-pNA was present in all assays at a concentration of 2 mM. (B) The effects of Zn^2+ and Mn^2+ preincubation, followed by extensive dialysis in metal-free buffer and subsequent addition of excess Mn^2+. (C) Michaelis–Menten plots showing inhibition of PaPepA by Zn^2+. Data were fit to a noncompetitive mixed model of inhibition. (D) Representative plots of the ITC data for titrations of MnCl2 (left) and MgCl2 (right) with PaPepA. The top panel depicts raw data, and the bottom panel depicts the resulting enthalpy changes as a function of molar addition of metal as well as the best fit to a single binding site model. (E) Plot of room-temperature EPR double integrals against Mn^2+ concentration for samples without enzyme (teal dots) and in the presence of 20 μM PaPepA (purple dots). […] (F) Frozen solution EPR spectra of PaPepA in the presence of various ratios of Mn^2+: enzyme, upper box zoomed-in data without the metal in buffer control. For panels (A), (B), and (C), data are mean ± SEM across three replicates. For Figure 3D, experiments were performed in two separate biological replicates, one shown here for illustration, and all data were acquired in Figure S11. […]

T1 sequence (Q02RY8 whole entry): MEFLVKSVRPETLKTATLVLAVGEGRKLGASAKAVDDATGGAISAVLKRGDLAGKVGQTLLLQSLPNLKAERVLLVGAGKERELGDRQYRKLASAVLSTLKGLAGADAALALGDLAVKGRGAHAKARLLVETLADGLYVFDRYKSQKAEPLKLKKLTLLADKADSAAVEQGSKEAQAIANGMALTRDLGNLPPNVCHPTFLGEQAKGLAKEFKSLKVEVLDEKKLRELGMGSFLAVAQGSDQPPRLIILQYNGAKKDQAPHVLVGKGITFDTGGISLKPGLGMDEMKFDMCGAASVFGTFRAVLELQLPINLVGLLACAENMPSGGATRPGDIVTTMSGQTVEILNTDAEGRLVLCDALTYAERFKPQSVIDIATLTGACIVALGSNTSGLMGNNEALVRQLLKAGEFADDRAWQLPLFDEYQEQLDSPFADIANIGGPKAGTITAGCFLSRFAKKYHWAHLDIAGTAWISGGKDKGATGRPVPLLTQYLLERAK

With `O=C([O-])O.[Na+]` [bicarbonate, sodium bicarbonate] the “activation by bicarbonate (in words)” value (PaPepA [1]) was “not observed activation or increase in activity”.
In the case of `[Mg+2]` [Mg^2+], the KACT (PaPepA [2]; pH 8.0) is reported as 3 mM and 3.0 ± 0.7 mM, the kcat (PaPepA [2]; pH 8.0) is reported as 0.051 ± 0.002 s^–1 and the kcat/KACT (PaPepA [2]; pH 8.0) is reported as 0.017 ± 0.004 s^–1mM^–1. The KACT (PaPepA [2]; pH 8.0, listed as MgCl2) was roughly 3 mM, the “number of metal atoms binding the protein” value (PaPepA [3]; ITC stoichiometry per monomer) was 0.68 and the Kd (PaPepA [3]; ITC, first line per metal: N 1, [PepA] 35.80 ± 1.5 (Mn) or 32.60 (Mg) µM, [Metal] 400.0 or 1000 µM) was 1.84 ± 0.182 µM. For the same molecule, the Kd (PaPepA [3]; ITC, one binding site per monomer) was 2.1 ± 0.3 µM, the Kd (PaPepA [3]; ITC, one binding site per monomer, 25 °C, pH 7.4) was 2.14 ± 0.326 µM and the Kd (PaPepA [3]; ITC, second line per metal: N 1, [PepA] 47.00 or 48.00 µM, [Metal] 526.5 ± 22.5 (Mn) or 1470 (Mg) µM) was 2.72 ± 0.47 µM. The N (PaPepA [3]; ITC, third line per metal: N fitted) was 0.679 ± 0.001, the Kd (PaPepA [3]; ITC, third line per metal: N fitted, [PepA] 47.00 or 48.00 µM, [Metal] 400.0 or 1000 µM) was 1.84 ± 0.182 µM and the “^D2Okcat” value (PaPepA [4]) was 3.1 ± 0.1. The “^D2Okcat/KACT” value (PaPepA [4]) was 2.3 ± 0.1.
Molecule `CC(C)C[C@H](N)C(=O)O` [leucine] has a Ki (PaPepA [5]) of 601 µM.
For `[Zn+2]` [Zn^2+], the KACT (PaPepA [2]; pH 8.0) was 0.02 ± 0.01 mM, the kcat (PaPepA [2]; pH 8.0) was 0.009 s^–1 and 0.009 ± 0.001 s^–1 and the kcat/KACT (PaPepA [2]; pH 8.0) was 0.5 ± 0.2 s^–1mM^–1. For the same molecule, the KACT (PaPepA [2]; pH 8.0, as given in text) was 0.02 mM, the Ki (PaPepA [6]; Zn^2+ and Mn^2+ both added without preincubation, noncompetitive mixed model) was 12.2 µM and the α (PaPepA [6]; noncompetitive model of inhibition) was 5.6.

Reference: article PMC10666288, “Unveiling the Catalytic Mechanism of a Processive Metalloaminopeptidase” (Biochemistry, 2023)
